Source: US11083732B2, “Use of negative modulators of GABA receptors containing alpha5 subunits as fast acting antidepressants” (University of Maryland, Baltimore, priority 2014, dated 2021)

Assays:
[1] = system: rats subjected to chronic restraint stress; assay: Sucrose preference test (SPT) after chronic restraint stress (CRS); type: in vivo, rat; settings: MRK-016 3 mg/kg
Text: (§1) MRK-016 rapidly reverses loss of sucrose preference and social interaction behaviors after chronic restraint stress (FIG. 9). […] This persisted for 7 days despite further stress exposure. and in the same animals after an additional week of CRS and 7 days after the injection of MRK-016.
(§2) Chronic restraint stress (CRS). Male Sprague Dawley rats (4-5 weeks-old; Harlan Laboratories) were placed in appropriately sized restraint tubes, highly restricting their movement for periods of four hours in a brightly lit lab, every day for ten days during the light phase of their diurnal cycle (Lim et al., 2012).
Sucrose preference test (SPT). Rats were given a choice between two bottles containing tap water or a 1% sucrose solution (Rygula et al., 2006). Testing was conducted overnight (16 hours), including the full duration of their dark phase. Animals were first trained with both bottles while group-housed. For subsequent tests, including during the baseline period, animals were individually housed. Sucrose preference was calculated as amount of the sucrose solution consumed as a percentage of the total amount of liquid consumed.
Drugs/stats. L-655,708 was purchased from Tocris Bioscience (R&D Systems, Minneapolis, Minn.) and prepared at a concentration of 5 mM in 75% saline/25% DMSO. […] This dose is sufficient to occupy about 70% of forebrain binding sites (Atack et al., 2005)
(§3) Several hedonic behaviors in rodents are sensitive to chronic stress and are restored by chronic, but not acute, administration of SSRIs, providing one means to screen for potential antidepressant compounds. First, it was determined whether L-655,708 would rapidly (<24 hrs) restore normal hedonic behavior following chronic restraint stress (Watanabe et al., 1992; Lim et al., 2012), consistent with the rapid antidepressant-like actions of ketamine (Li et al., 2011). Baseline measurements were first made of social interaction and sucrose preference, and then 4-5 week old rats were subjected to ten days of CRS. […]

[2] = system: rats subjected to chronic restraint stress; assay: Social interaction test (SIT) after chronic restraint stress (CRS); type: in vivo, rat; settings: MRK-016 3 mg/kg
Text: as §1, §2
Social interaction test (SIT). As described previously (Berton et al., 2006), rats were placed in a plastic enclosure (82×82 cm) with a 5×5 grid of squares (16.4×16.4 cm) visible underneath the clear plastic flooring. A small translucent perforated plastic box (20×16 cm) was placed against the center of one wall of the arena. During the testing conditions white overhead fluorescent lighting was used to illuminate the arena. A video camera positioned 170 cm above the floor of the arena was used to track the movements of the rats during the experiment.
Each test consisted of a “target-absent” trial followed by a “target-present” trial. During testing, an individual test rat was placed in the center of the arena and, after 30s of adaptation, the rat's movements were recorded with the video camera for 2.5 minutes. […]
Results were quantified as the percentage of time spent in the “interaction zone” (the five grid squares immediately surrounding the plastic cage) as measured for both the “target-absent” and “target-present” trials. […]
as §3, with “2011).” for “2011). Baseline measurements were first made of social interaction and sucrose preference, and then 4-5 week old rats were subjected to ten days of CRS.”

TA-CA1 synapses = assay: Anpirtoline (5-HT1BR agonist) potentiation of TA-CA1 EPSP slope in hippocampal slices; parameters: species or system rat; settings: slices after CUS
Procedure: Experiment B. Do alpha5 GABA-NAMs restore 5-HT1BR-mediated potentiation? One can consider whether alpha5 GABA-NAMs reverse another phenotypic alteration of stressed TA-CA 1 synapses: amplification and persistence of responses to the 5-HT1BR agonist anpirtoline (FIG. 3A) (Cai et al., 2013). Slices are prepared from the four groups described in Experiment A. Anpirtoline (501.1M) is bath applied for 60 min, followed by a 90 min washout period. In specific embodiments, anpirtoline potentiation of […], vehicle-injected controls and that injection of alpha5 GABA-NAM […], but has no effect in control rats (see FIG. 3B).

[3] = system: depressive symptoms in humans; settings: acute administration; cited from earlier work
[4] = system: chronically stressed animals; settings: Li et al., 2011; cited from earlier work

## Cc1cc(-c2nncc3c(C(C)(C)C)c(OCc4ncnn4C)nn23)no1 [MRK-016, 3-tert-Butyl-7-(5-methylisooxazol-3-yl)-2-(1-methyl-1H-1,2,4-triazol-5-ylmethoxy)-pyrazolo[1,5-d]-[1,2,4] triazine]
[1]; CRS continued
  persistence of effect on sucrose preference: 7 days
[1]; CRS, 24 hours after treatment, vs baseline
  sucrose preference: not significantly different than the baseline before stress exposure
[2]; CRS, 24 hours after treatment, vs pre-stress
  social interaction scores: not significantly different than the pre-stress condition
[2]; despite further stress exposure
  persistence of effect on social interaction: 7 days

## Clc1cccc(SC2CCNCC2)n1 [anpirtoline]
TA-CA1 synapses
  persistence of potentiation after washout: > 60 min
TA-CA1 synapses; vs control slices
  potentiation of TA-CA1 EPSP slope: larger

## CNC1(c2ccccc2Cl)CCCCC1=O (stereo not drawn) [ketamine]
[3]
  persistence of antidepressant effects: up to two weeks
  time to improved mood and reduced depressive symptoms: 1 to 2 h
[4]
  time to restoration of sucrose preference and novelty suppressed feeding behaviors: 24 h
